Measurements reported in patent US12441732B2, “Potassium salt crystal form B of phosphodiesterase type 5 inhibitor, and preparation method and use therefor” (Guangzhou Huazhen Pharmaceutical Co., Ltd, priority 2019, dated 2025).
Values after ≈ are worked out from the molar mass of the structure shown. Where two headings read alike, the source gives them in different places.

Key:
PAH rats [1] = experiment: Monocrotaline-induced pulmonary arterial hypertension (PAH) rats: RVSP, RVMI, pulmonary arterioles; type: in vivo, SD rats; conditions: for RVMI, RV/(LV+S) / RVSP: 3 weeks after MCT
Description: SD rats were randomly divided into 8 groups, 15 rats/group: a normal control group (Vehicle); a PAH model group (MCT); a PAH+potassium salt crystal form B of WYQ mini-dose group (hereafter referring to as a mini-dose group); a PAH+potassium salt crystal form B of WYQ low-dose group (hereafter referring to as a low-dose group); a PAH+potassium salt crystal form B of WYQ medium-dose group (hereafter referring to as a medium-dose group); a PAH+potassium salt crystal form B of WYQ high-dose group (hereafter referring to as a high-dose group); a PAH+Sildenafil control group (hereafter referring to as a Sildenafil group); a PAH+Tadalafil control group (hereafter referring to as a Tadalafil group).
MCT was fully dissolved with 1M dilute HCl, diluted with double-distilled water, and adjusted to pH=7.2 with 3M NaOH, thereby preparing a MCT solution with a final concentration of 20 mg/ml.
The normal control group was injected subperitoneally with normal saline (50 mg/kg), and the rest of the groups were injected subperitoneally with MCT (50 mg/kg) at one time.
Mini-dose group: the potassium salt crystal form B of WYQ was prepared into a 0.4 mg/ml medicinal solution (ready to use) with normal saline, and administered by gavage at the dose of 2 mg·kg^−1d^−1;
Low-dose group: the potassium salt crystal form B of WYQ was prepared into a 1 mg/ml medicinal solution (ready to use) with normal saline, and administered by gavage at the dose of 5 mg·kg^−1d^−1;
Medium-dose group: the potassium salt crystal form B of WYQ was prepared into a 2 mg/ml medicinal solution (ready to use) with normal saline, and administered by gavage at the dose of 10 mg·kg^−1d^−1;
High-dose group: the potassium salt crystal form B of WYQ was prepared into a 4 mg/ml medicinal solution (ready to use) with normal saline, and administered by gavage at the dose of 20 mg·kg^−1d^−1;
Sildenafil group: Sildenafil was prepared into a 5 mg/ml medicinal solution (ready to use) with 0.5% sodium carboxymethyl cellulose, and administered by gavage at the dose of 25 mg·kg^−1d^−1;
Tadalafil group: Tadalafil was prepared into a 2 mg/ml medicinal solution (ready to use) with 0.5% sodium carboxymethyl cellulose, and administered by gavage at the dose of 10 mg·kg^−1d^−1.
The day of injection was the starting date of the experiment, and the administration was started after 7 days of modeling, once a day for 14 consecutive days.
After 3 weeks from the starting date of the experiment, RVSP data were collected on RM-6240E polygraph for each group of rats.
After 3 weeks from the starting date of the experiment, the animals were anesthetized, hemodynamically tested (RM-6240E polygraph), and sacrificed after manometry. The cardiopulmonary tissues were immediately dissected, and the right and left atria and great vessels were cut off along the atrioventricular junction with ophthalmic scissors to separate the right ventricle (RV) and left ventricular wall plus septum (LV+S), which was absorbed water with filter paper and weighed respectively, and RV/(LV+S), i.e., RVMI was calculated.
After 3 weeks from the starting date of the experiment, rats were heparinized with heparin (50 IU/100 g, intraperitoneal injection) for 5 min. The animals were anesthetized by injection of 20% urethane solution (0.5 ml/100 g), and the blood pressure indexes were detected and recorded.
The heart was dissected, the right ventricular wall was separated, and the left ventricle and the septum were separated, which were absorbed water with filter paper and weighed respectively to calculate the right ventricular hypertrophy index.
The lungs were dissected, wherein the right lung was ligated, and the left lung lobe was perfused with a fixative (4% paraformaldehyde) and then fixed in the fixative, dehydrated by ethanol gradient, allowed to become transparent by using xylene, immersed in wax, embedded in paraffin, sectioned (4 μm), stained with hematoxylin-eosin (HE), sealed with neutral gum and then observed under a microscope. […]

[2] = background statement; cited from earlier work
PAH rats [3] = experiment: Penile erectile function observation in PAH rats; type: in vivo, SD rats
Method: After gavage treatment, penile erection in the animals was observed, wherein the time of penile erection phenomenon after gavage was recorded in each group.

PDE5 = PDE5 (Homo sapiens, UniProt O76074); conditions: background statement; cited from earlier work
IPF rats = experiment: Bleomycin-induced idiopathic pulmonary fibrosis (IPF) rats; type: in vivo, SD rats; conditions: 23 days
Method: The animals were purchased, and modeling was started after 3-7 days of acclimatization. The animals were weighed and anesthetized by inhalation with isoflurane. After the animals were confirmed to be anesthetized, the neck was disinfected, and the skin of the neck was cut. The main trachea was exposed by bluntly dissecting the muscle, a small incision was made between the tracheal rings, into which a PE-20 tube was inserted until the left main bronchus, and bleomycin was injected directly (dose: 3 mg/kg, volume: 1.0 ml/kg). The trachea and skin were sutured. After the surgery, the animals were kept warm at 37° C. under an electric blanket until the animals were fully awake and confirmed to be able to feed and drink freely before returning the animals to their normal feeding cages.
50 mg/kg Nintedanib group (BIBF-50 mg/kg): BIBF was prepared into a solution of 10 mg/ml with 0.5% sodium carboxymethyl cellulose and administered by gavage at a dose of 50 mg/kg^−1·d^−1;
Each group of rats was administered by gavage on the day of modeling, once a day for 23 days in total.
After 23 days of continuous administration, all animals in each group were euthanized by intraperitoneal injection of pentobarbital sodium anesthetic (100 mg/kg) in accordance with the KCl standard operating procedure for animal euthanasia. Whole-body perfusion was performed by low-temperature PBS, and then fixation was performed by whole-body formalin perfusion. The left lung was taken and perfused with an equal amount of formalin fluid for weighing and subsequent lung pathology-related tests.
Left lung gross pathological examination: after perfusion with an equal amount of formalin, the wet weight of the left lung after the perfusion was weighed and recorded with a microbalance; the volume of the left lung after perfusion was measured and recorded using a toe volume measuring instrument.
The whole lung of the left lung was dehydrated according to the KCl pathology standard SOPs, and paraffin blocks were prepared. The whole lung of the left lung was paraffin-sectioned at a thickness of 3-4 μm. HE staining and Masson Trichrome staining were performed according to the KCl pathology standard staining SOPs, and the slice panoramic scanning was carried out by a Hamamatsu NanoZoomer Digital Pathology (S210) slice scanner. The lung lesion area was calculated by Masson Trichrome staining of the sections, and the left lung fibrosis area (%) was the percentage of fibrosis area in the left lung area; 10 randomly selected fields of view of 1 mm^2 in the lesion area were semi-quantitatively scored by the pathologist under double-blind conditions according to the Ashcroft scoring system (as shown in Table 8 and FIG. 40).

[4] = Solid-state stability test (one week, open); type: physicochemical; conditions: for HPLC purity: Purity after placement / Purity after placement/Starting purity / Crystal form change: open; for Crystal form change: XRPD
Method: The solid-state stability of the potassium salt crystal form B prepared in Embodiment 1 was tested, in which 5.22 mg of potassium salt crystal form B samples were weighed and left open at 25° C./60% RH, and 5.19 mg of potassium salt crystal form B samples were weighed and left open at 40° C./75% RH. After one week, all samples were subjected to XRPD characterization (see XRPD parameter settings in Table 1) and HPLC purity test (Agilent 1100) to detect changes in crystal form and purity, wherein HPLC purity test parameters were shown in Table 6. Meanwhile, 4.59 mg of a compound WYQ sample was weighed and left open at 25° C./60% RH, and 5.11 mg of the compound WYQ sample was weighed and left open at 40° C./75% RH. The solid-state stability of these samples were performed under the same conditions for comparative reference.

[5] = Dynamic solubility test in water, SGF, FaSSIF, FeSSIF at 37° C.; type: physicochemical; conditions: for solubility at 1 h / solubility at 4 h / solubility at 24 h: thermodynamic from solid, read-out: solubility (S)
[6] = Sildenafil group 25 mg·kg^−1d^−1
[7] = Sildenafil group 25 mg·kg^−1d^−1 gavage once a day for 14 days
[8] = Tadalafil group 10 mg·kg^−1d^−1 gavage once a day for 14 days

For `CCCc1nn(C)c2c(=O)[nH]c(-c3cc(S(=O)(=O)N4CCN(C)CC4)ccc3OCC)nc12` [Sildenafil, reference compound], the “WT % of pulmonary arterioles vs PAH model group” value (PAH rats [1]; [6]) was “not statistically significant”, the “tunica media thickness of pulmonary arterioles vs PAH model group” value (PAH rats [1]; [6]) was “decrease” and the “RVMI, RV/(LV+S)” value (PAH rats [1]; [7]) was 48.4±1.0%. For the same molecule, the RVSP (PAH rats [1]; [7]) was 60.4±5.0 mmHg, the bioavailability [2] was “about 41%” and the “rats showing penile erection” value (PAH rats [3]; Sildenafil group 25 mg·kg^−1d^−1, over 30 minutes after gavage) was 80%. The “selective effect on PDE5 relative to PDE6” value (PDE5) was 10 times.
For `COC(=O)c1ccc2c(c1)NC(=O)/C2=C(\Nc1ccc(N(C)C(=O)CN2CCN(C)CC2)cc1)c1ccccc1` [BIBF, Nintedanib, reference compound], the Left lung volume (IPF rats; 50 mg/kg gavage once a day) was 1736.9 ± 136.10 mm^3, the Left lung weight (IPF rats; 50 mg/kg gavage once a day) was 1.58 ± 0.12 g and the “alveolar tissue structure in left lung pulmonary fibrosis lesions (HE staining)” value (IPF rats; 50 mg/kg) was “some of the alveolar structures in the fibrotic lesions were still damaged”. For the same molecule, the “alveolar tissue structure in left lung pulmonary fibrosis lesions (Masson Trichrom staining)” value (IPF rats; 50 mg/kg) was “some of the alveolar structures in the fibrotic lesions disappeared”, the “left lung pulmonary fibrosis lesions and lesion range vs the model group” value (IPF rats; different doses, H&E and Masson Trichrom staining) was “no significant difference” and the Fibrosis area (IPF rats; left lung, 50 mg/kg) was 56.91 ± 4.19%. The “Percentage of score (%) (≤3)” value (IPF rats; left lung, 50 mg/kg) was 78.75 ± 4.79 %.
For `CN1CC(=O)N2[C@H](c3ccc4c(c3)OCO4)c3[nH]c4ccccc4c3C[C@@H]2C1=O` [Tadalafil, reference compound], the “RVMI, RV/(LV+S)” value (PAH rats [1]; [8]) is given as 41.8±1.9%, the RVSP (PAH rats [1]; [8]) is given as 52.5±2.4 mmHg and the biological half-life [2] is given as “approximately 17.5 hours”. For the same molecule, the “rats showing penile erection” value (PAH rats [3]; Tadalafil group 10 mg·kg^−1d^−1, over 30 minutes after gavage) was 80%.
For `CCCCOC(=O)NS(=O)(=O)c1cccc(-c2nc3c(CCC)nn(C)c3c(=O)[nH]2)c1` [compound WYQ, 5-(2-H-5 (N-butoxycarbonylaminosulfonyl)phenyl)-1-methyl-3-propyl-1,6-dihydro-7H-pyrazolo [4,3-d]pyrimidin-7-one], the “decrease in purity after one week of placement” value ([4]; 25° C./60% RH) was “No significant decrease”, the “HPLC purity: Purity after placement” value ([4]; 25° C./60% RH, one week) was 97.17 area % and the “Purity after placement/Starting purity” value ([4]; 25° C./60% RH, one week) was 99.8%. The Crystal form change ([4]; 25° C./60% RH, one week) was “unchanged”, the “decrease in HPLC purity (area %)” value ([4]; 40° C./75% RH, one week) was “about 1%” and the “HPLC purity: Purity after placement” value ([4]; 40° C./75% RH, one week) was 96.30 area %. The “Purity after placement/Starting purity” value ([4]; 40° C./75% RH, one week) was 98.9%, the Crystal form change ([4]; 40° C./75% RH, one week) was “changed” and the “crystal form change after XRPD assay (FC)” value (from here on “crystal form change … (FC)”) ([5]; FaSSIF, 1 h) was “yes”. The pH ([5]; FaSSIF, 1 h) was 6.5, the “crystal form change … (FC)” value ([5]; FaSSIF, 4 h) was “yes” and the pH ([5]; FaSSIF, 4 h) was 6.5. For the same molecule, the “crystal form change … (FC)” value ([5]; FaSSIF, 24 h) was “yes”, the pH ([5]; FaSSIF, 24 h) was 6.6 and the “crystal form change … (FC)” value ([5]; FeSSIF, 1 h) was “yes”. The pH ([5]; FeSSIF, 1 h) was 5.0, the “crystal form change … (FC)” value ([5]; FeSSIF, 4 h) was “yes” and the pH ([5]; FeSSIF, 4 h) was 5.0. For the same molecule, the “crystal form change … (FC)” value ([5]; FeSSIF, 24 h) was “yes”, the pH ([5]; FeSSIF, 24 h) was 5.0 and the “crystal form change … (FC)” value ([5]; SGF, 1 h) was “yes”. The pH ([5]; SGF, 1 h) was 2.4, the “crystal form change … (FC)” value ([5]; SGF, 4 h) was “yes” and the pH ([5]; SGF, 4 h) was 2.5. For the same molecule, the “crystal form change … (FC)” value ([5]; SGF, 24 h) was “yes”, the pH ([5]; SGF, 24 h) was 2.4 and the solubility at 1 h ([5]; fasted-state simulated intestinal fluid (FaSSIF), FaSSIF, 1 h) was 1900 µg/mL (≈ 4250 µM). For the same molecule, the solubility at 4 h ([5]; fasted-state simulated intestinal fluid (FaSSIF), FaSSIF, 4 h) was 1900 µg/mL (≈ 4250 µM), the solubility at 24 h ([5]; fasted-state simulated intestinal fluid (FaSSIF), FaSSIF, 24 h) was 2000 µg/mL (≈ 4470 µM) and the solubility at 1 h ([5]; fed-state simulated intestinal fluid (FeSSIF), FeSSIF, 1 h) was 160 µg/mL (≈ 358 µM). It also gave a solubility at 4 h ([5]; fed-state simulated intestinal fluid (FeSSIF), FeSSIF, 4 h) of 160 µg/mL (≈ 358 µM), a solubility at 24 h ([5]; fed-state simulated intestinal fluid (FeSSIF), FeSSIF, 24 h) of 160 µg/mL (≈ 358 µM) and a solubility at 1 h ([5]; simulated gastric fluid (SGF), simulated gastric fluid, SGF, 1 h) of 5.6 µg/mL (≈ 12.5 µM). It also gave a solubility at 4 h ([5]; simulated gastric fluid (SGF), simulated gastric fluid, SGF, 4 h) of 6 µg/mL (≈ 13.4 µM), a solubility at 24 h ([5]; simulated gastric fluid (SGF), simulated gastric fluid, SGF, 24 h) of 6.9 µg/mL (≈ 15.4 µM) and a solubility at 1 h ([5]; water, 1 h) of 2200 µg/mL (≈ 4920 µM). For the same molecule, the solubility at 4 h ([5]; water, 4 h) was 1800 µg/mL (≈ 4020 µM), the solubility at 24 h ([5]; water, 24 h) was 2200 µg/mL (≈ 4920 µM) and the “crystal form change … (FC)” value ([5]; water, 1 h) was “yes”. For the same molecule, the pH ([5]; water, 1 h) was 7.7, the “crystal form change … (FC)” value ([5]; water, 4 h) was “yes” and the pH ([5]; water, 4 h) was 7.9. For the same molecule, the “crystal form change … (FC)” value ([5]; water, 24 h) was “yes” and the pH ([5]; water, 24 h) was 7.6.
